Measured values taken from PubChem BioAssay (NCI).
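GI50 = concentration required for 50% inhibition of growth. At the TGI there is no net growth.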

Columns and labels:
Assay in all cases: NCI-60 cell line screen, 384-well format
[1] = test system: IGROV1 ovarian
[2] = test system: M14 melanoma
[3] = test system: MALME-3M melanoma
[4] = test system: MOLT-4 leukemia
[5] = test system: NCI-H522 lung
[6] = test system: OVCAR-3 ovarian
[7] = test system: OVCAR-8 ovarian
[8] = test system: SF-295 CNS
[9] = test system: SK-MEL-2 melanoma
[10] = test system: SK-MEL-5 melanoma
[11] = test system: SNB-19 CNS
[12] = test system: SNB-75 CNS
[13] = test system: UO-31 renal

Row | Structure (SMILES) | GI50 [1] | TGI [1] | GI50 [2] | TGI [2] | GI50 [3] | TGI [3] | GI50 [4] | TGI [4] | GI50 [5] | TGI [5] | GI50 [6] | TGI [6] | GI50 [7] | TGI [7] | GI50 [8] | TGI [8] | GI50 [9] | TGI [9] | GI50 [10] | TGI [10] | further results
1 | O=C(NCc1ccncc1)C12CC3CC(C1)CC(c1ccc(Cl)cc1)(C3)C2 | 12.1 µM | 24.6 µM | 17.8 µM | 31.7 µM | 15.6 µM | 29.1 µM | 4.37 µM | 14.7 µM | 11.5 µM | 23.9 µM | 10.8 µM | 23.7 µM | 13 µM | 25.9 µM | 14.1 µM | 27.2 µM | 13 µM | 25.7 µM | 8.68 µM | 21.2 µM | GI50 [11]: 16.3 µM; TGI [11]: 30 µM; GI50 [12]: 15 µM; TGI [12]: 28.3 µM; GI50 [13]: 11.9 µM; TGI [13]: 24.4 µM
2 | Cc1ncsc1-c1ccc(CNC(=O)[C@@H]2C[C@@H](O)CN2C(=O)[C@@H](NC(=O)C2(C#N)CC2)C(C)(C)C)cc1 | > 100 µM | > 100 µM | > 100 µM | > 100 µM | > 100 µM | > 100 µM | > 100 µM | > 100 µM | > 100 µM | > 100 µM | > 100 µM | > 100 µM | > 100 µM | > 100 µM | > 100 µM | > 100 µM | > 100 µM | > 100 µM | > 100 µM | > 100 µM | GI50 [11]: > 100 µM; TGI [11]: > 100 µM; GI50 [12]: > 94.8 µM; TGI [12]: > 100 µM; GI50 [13]: > 100 µM; TGI [13]: > 100 µM
